Laboratory results published in US20160243136A1, “PHARMACEUTICAL FORMULATIONS CONTAINING MITOCHONDRIALLY TARGETED ANTIOXIDANTS” (Mitotech SA, priority 2013, published 2016).
Entries after “also recorded” stand apart in the source; their conditions may differ.

Tests used:
[1] = test system: renal tubular cells (RTC); assay: In vitro inflammation model: renal tubular cells co-cultivated with bacterial lysate-activated leukocytes; format: cell-based, rat; conditions: for renal cell death (Annexin V-positive): 48 hr exposure to activated leukocytes, pre-incubation with drug; for TNF release in RTC-leukocyte co-culture: activated leukocytes (LC+BL)
Method: Kidneys from 1-3 day old rats were excised under aseptic conditions. The tissue was blended and dissociated by collagenase treatment (0.5%, 30 min at 37° C.). The final suspension was centrifuged for 5 min at 50 g. The pellet was resuspended in about 10 ml of DMEM/F12 (Gibco, USA) supplemented with 10% FCS (Gibco, USA) and kept for 2 min, after which the supernatant was transferred to another tube and the pellet was repeatedly resuspended. After 10 min, the renal tubules were pelleted and dissociated cells remaining in the suspension were discarded. The pellet was resuspended in DMEM/F12 with 10% FCS and seeded onto 24-well plates or onto coverslips placed in 35-mm glass-bottom Petri dishes.
E. coli strain No. 85 was cultured overnight in a cultivation medium containing 1% tryptone, 0.5% yeast extract and 1% NaCl (Sigma-Aldrich, USA). The medium, containing roughly 10^9 colony-forming units (CFU) per ml, was pelleted at 300 g for 3 min. The bacterial lysate was prepared by diluting 30 ml of an overnight (ON) culture and diluting the precipitate in 3 ml of 0.9% NaCl followed by autoclaving for 1.5 hr at 120° C.
5 ml heparinized blood collected from the jugular vein of adult male rats was carefully layered over 5 ml of Ficoll-Urografin (density of 1.077 g/cm^3), and centrifuged for 30 min at 200 g. This procedure results in erythrocyte pelleting, while the mononuclear fraction of leukocytes forms an interphase ring on the Ficoll surface, which was carefully collected. Leukocytes were transferred into another tube and centrifuged for 3 min at 200 g. The resultant pellet was resuspended in 5 ml of DMEM/F12. After cell counting in a hemocytometer, the cells were diluted to a final concentration of about 1×10^5 cells per ml.
In a two-day old renal cell culture, the medium was substituted with DMEM/F12 (400 μl per well, 1600 μl per dish), supplemented with (depending on the purpose): GSK-3β inhibitor LiCl (9 mM) (Sigma-Aldrich, USA), water-soluble antioxidant Trolox (50 μM, 100 μM) (Sigma-Aldrich, USA), MTAs 10-(6-plastoquinonyl)decyl-triphenylphosphonium (SkQ1), synthesized according to Antonenko et al. (2008) Biochemistry (Mosc) 73:1273-87), 10 nM, 100 nM), and 10-(6′-plastoquinonyl) decylrhodamine 19 SkQR1), synthesized according to Antonenko (2008), (1 nM, 10 nM, or 100 nM). Renal cells were incubated for 2 hr in this medium, followed by supplementation with leukocytes or neutrophils in DMEM/F12, or DMEM/F12, alone, in the control sample (400 μl per well, 1600 μl per dish). Simultaneously, the bacterial lysate or lipopolysaccharide (100 ng/ml, LPS, Sigma-Aldrich, USA) solution in DMEM/F12 and DMEM/F12 alone in the control sample (100 μl per well, 400 μl per dish) were added. Renal cells, leukocytes (neutrophils) were co-cultivated for 24 or 48 hr with bacterial lysate or LPS. Cell death (both necrotic and apoptotic) rate was evaluated using Annexin-V FITC Kit (Invitrogen, USA).
(§1) The ROS-sensitive fluorescent probe 2,7-DCF-DA (Molecular Probes, USA) dissolved in DMEM/F12 without bicarbonate (final concentration 10 μM) was added to renal cells (500 μl per well of 24-well plate, 2 ml per dish) and incubated for 15 min at 37° C. followed by a wash with DMEM/F12 without bicarbonate. MDA was determined as in (Mihara and Uchiyama (1978) Anal. Biochem. 86:271-8). Fluorescent probe, DAF-2-DA (Calbiochem, San Diego, Calif., USA) was used for NO determination in living cells. The procedure was the same as for 2,7-DCF-DA. The nitrite/nitrate concentration (as products of NO oxidation) in culture media was determined using Nitrite/Nitrate Assay Kit (Sigma-Aldrich, USA). TNFα was determined using the kit Rat TNFα ELISA Ready-SET-Go (Ebioscience, USA).
Renal cells were imaged with an LSM510 inverted confocal microscope (Carl Zeiss Inc., Jena, Germany) with excitation at 488 nm and emission collected at 500 nm-530 nm with a pinhole diameter of 150 μm. Images were processed using ImageJ software (NIH, Bethesda, Md., USA).

[2] = test system: rat model of APN; assay: In vivo rat model of acute pyelonephritis (APN), bacteria introduced in the bladder
Method: An in vivo experimental model of APN was used where bacteria are introduced in the bladder of rat (Gupta et al. (1995) J. Med. Microbiol. 43:33-36). Experiments were performed on outbred white female rats (180-200 g) fed ad libitum. Animal protocols were approved by the Institutional Review Boards. Rats were anesthetized with chloral hydrate (300 mg/kg, intraperitoneally(ip)). The animals were infected intraurethrally using a soft Intramedic non-radio-opaque polyethylene catheter (Clay Adams, USA). The inoculum (5 ml per kg, 1×10^8 CFU/ml of rat fecal bacterial composition) was injected slowly to avoid any leakage […]. Control animals were untreated. The therapeutic protocol of SkQR1 used to treat this pathology was as follows: […], with subsequent injections of the same amount of SkQR1 at 12, 24, 36 and 48 hrs; in total, each animal received 500 nmol SkQR1 per kg. […]
Kidney mitochondria were isolated by homogenization and differential centrifugation in a medium containing 250 mM sucrose, 20 mM HEPES-KOH, 1 mM EGTA and 0.1% BSA, pH7.4. Total mitochondrial protein was determined using a bicinchoninic acid protein assay kit (Sigma-Aldrich, USA). The mitochondria from cultured kidney cells were isolated by the same protocol.
as §1
The kidney was isolated immediately after sacrificing the animal and perfused with ice-cold PBS. It was then fixed in a 10% neutral buffered formalin solution, embedded in paraffin and used for histopathological examination. Five micrometer thick sections were cut, deparaffinized, hydrated, and stained with hematoxylin and eosin. The renal sections were examined in blinded fashion for inflammation and infiltration by leukocytes in the kidneys of all treated animals. A minimum of 10 fields for each kidney slide were examined and scored for pathologic severity.
The manifestation of inflammatory indicators (i.e., a number of infiltrated leukocytes in every layer and the presence of abscesses) under APN was evaluated using the following scale: 0, none; 1, 5-50 leukocytes in the view field; […]; 4, abscesses with pus-necrotic content. The distribution of inflammatory changes (i.e., comparative analysis of infiltration and abscesses) was evaluated by the following criteria: 0, none in any layer; 1, infiltration in the medullar layer; 2, infiltration reaching the cortex.
Kidney homogenates for MPO determination were centrifuged at 20000 g 15 min, the pellets were resuspended in 50 mM K-phosphate buffer containing 0.5% CTAB. Resulted samples were frozen and thawed three times and then centrifuged at 10600 g 10 min. Supernatants were analyzed for MPO activity in chromogenic reaction with o-phenylenediamine (OPD). 100 μl sample was mixed with 100 μl substrate buffer (25 mM Na-citrate, 50 mM Na-phosphate, 0.45 mg/ml OPD, 0.1% H2O2, pH 5.0) and was incubated 15 min at room temperature and then OD was detected at 492 nm.
Samples of kidney homogenates were loaded onto 15% Tris-glycine polyacrylamide gels (10-20 μg of total protein per lane). After electrophoresis, gels were blotted onto PVDF membranes (Amersham Pharmacia Biotech, UK). […]

CC/N=c1/cc2oc3cc(NCC)c(C)cc3c(-c3ccccc3C(=O)OCCCCCCCCCCC3=CC(=O)C(C)=C(C)C3=O)c-2cc1C [SkQR1, 10-(6′-plastoquinonyl) decylrhodamine 19]
ROS production in renal cells (DCF fluorescence) ([1]; 10 nM, pretreatment 2 hr, co-cultivation with activated leukocytes): suppression of ROS production after co-cultivation with activated leukocytes to levels close to those observed on controls
renal cell death (Annexin V-positive) [1]: more pronounced than that afforded by the traditional water-soluble antioxidant, Trolox; also recorded: highest efficiency
TNF release in RTC-leukocyte co-culture [1]: did not have a significant effect
number of leukocytes in the blood ([2]; 3 days after infection, SkQR1): prevented an elevation
abscesses in kidneys of pyelonephritic rats ([2]; SkQR1 100 nmoles/kg ip at 1, 12, 24, 36, 48 hr after bacteria): significantly less prevalent
MDA concentration in whole kidney tissue ([2]; SkQR1 100 nmoles/kg ip x5): significantly lower
leukocyte infiltration in all kidney layers and spreading of the inflammatory process ([2]; SkQR1 100 nmoles/kg ip x5, histology): inhibited
kidney tissue concentration of TNFα ([2]; SkQR1-treated pyelonephritic rats vs APN rats without SkQR1): lower than in APN rats without SkQR1
activation of pro-inflammatory signaling pathways in peripheral leukocytes ([2]; SkQR1-treated rats): suppressed
other inflammation markers in blood (FIG. 8A-8C) ([2]; SkQR1-treated rats): decreased
animal survival ([2]; SkQR1 during first two days after infection): significantly greater
Bcl-2 changes in isolated kidney mitochondria (weaker 26 kD band, stronger 15 kD band) ([2]; Western blot): diminished
level of IKB in leukocytes ([2]; Western blot, lower in untreated pyelonephritic rats): lower in untreated pyelonephritic rats but not in SkQR1-treated rats
Bcl-2 level in total kidney homogenates ([2]; Western blot, lowering seen with pyelonephritis): absent in pyelonephritic rats receiving SkQR1
expression of toll receptors in different regions of the kidney ([2]; activated under APN): normal expression
tissue activity of myeloperoxidase (MPO), index of neutrophil infiltration ([2]; kidney, SkQR1 100 nmoles/kg ip x5): significantly inhibited
ROS production (DCF fluorescence) in blood leukocytes ([2]; leukocytes from pyelonephritic rats receiving SkQR1 vs untreated): lower than in untreated animals

c1ccc2c(c1)[I+]c1ccccc1-2 [DPI, diphenyleneiodonium, reference compound]
ROS production inside renal cells (DCF fluorescence) ([1]; 0.5 μM): inhibited the ROS production

[Cl-].[Li+] [LiCl, reference compound]
renal cell death (Annexin V-positive) [1]: protected renal cells from death and its effect was more profound than of Trolox
ROS production in renal cells (DCF fluorescence) ([1]; LiCl pre-treatment (9 mM)): had an antioxidative effect
TNF release in RTC-leukocyte co-culture [1]: did not have a significant effect

Cc1c(C)c2c(c(C)c1O)CCC(C)(C(=O)O)O2 (centres unmarked) [Trolox, reference compound]
ROS production in renal cells (DCF fluorescence) ([1]; 100 μM, pretreatment 2 hr, co-cultivation with activated leukocytes): suppression of ROS production after co-cultivation with activated leukocytes to levels close to those observed on controls
TNF release in RTC-leukocyte co-culture [1]: did not have a significant effect
